Source: paper PMC7531004, “Discovery of gramicidin A analogues with altered activities by multidimensional screening of a one-bead-one-compound library” (Nature Communications, 2020)
Where a SMILES comes first, the peptide text is derived from it. [ ]: non-standard residue; d: D form. The star is where a group is joined. NHCH2CH2OH = OCCN*; For = O=C*

Tests used:
[1] = H+/Na+ transport assay of bead-derived peptides (one-point); format: biochemical; parameters: key: relative activity; mean of two control wells = 1.00; settings: bead-derived peptide solution, EYPC/EYPG LUVs;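 note: relative to parent gramicidin A activity set to 1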
Method in brief: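 H+/Na+ transport is monitored through pyranine fluorescence in freshly extruded LUVs after a 30-min room-temperature vortex with each library peptide at a single concentration. Signals are normalized to detergent (Triton X-100) and untreated controls.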

[2] = test system: P388 mouse leukemia cells; settings: 92 h
Method in brief: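 P388 cells at 1 × 10^4 cells/mL (final) were exposed to library peptides (stocks diluted 250-fold in RPMI1640/10% FBS) for 92 h at 37 °C, 5% CO2. Viable cells were counted by WST-1/1-methoxy PMS (4 h), absorbance 415 nm, and expressed as cell viability (%).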

[3] = test system: Streptococcus pyogenes SSI-9; test: Antibacterial activity assay of bead-derived peptides (three concentrations); format: cell-based; parameters: key: +++: inhibition by the 640-fold diluted peptide solution; ++: inhibition by the 160-fold diluted solution; +: inhibition by the 40-fold diluted solution; -: no inhibition; settings: S. pyogenes, bead-derived peptide solution, three concentrations
Method in brief: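 Undiluted, 4-fold and 16-fold DMSO-diluted peptide stocks; S. pyogenes SSI-9, 2 × 10^5 CFU, cation-adjusted MHB (50 mg/L Ca2+, 25 mg/L Mg2+) + 5% laked horse blood; 37 °C, 18 h; readout = cell pellet visible or not.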

SMILES | H+/Na+ transport activity normalized against the value of 1 (1.00) [1] | cell viability/% [2] [%] | antibacterial activity [3]
CC(C)C[C@@H](NC(=O)[C@H](C)NC(=O)CNC(=O)[C@@H](NC=O)C(C)C)C(=O)N[C@@H](C)C(=O)N[C@H](CC(C)C)C(=O)N[C@H](C(=O)N[C@H](CC(C)C)C(=O)N[C@@H](Cc1c[nH]c2ccccc12)C(=O)N[C@H](CC(C)C)C(=O)N[C@@H](Cc1c[nH]c2ccccc12)C(=O)N[C@@H](C(=O)N[C@@H](Cc1c[nH]c2ccccc12)C(=O)N[C@@H](C(=O)N[C@@H](Cc1c[nH]c2ccccc12)C(=O)NCCO)C(C)C)[C@H](C)O)C(C)C [compound 3143] (For-VGA[dL]A[dL]V[dL]W[dL]W[dT]W[dV]W-NHCH2CH2OH) | 1.04 | 99.9 | +
CNC(=O)C[C@@H](NC(=O)[C@H](Cc1c[nH]c2ccccc12)NC(=O)[C@@H](CC(C)C)NC(=O)[C@@H](NC(=O)[C@@H](CC(C)C)NC(=O)[C@H](C)NC(=O)[C@H](NC(=O)[C@H](C)NC(=O)CNC(=O)[C@@H](NC=O)C(C)C)C(C)C)C(C)C)C(=O)N[C@@H](Cc1c[nH]c2ccccc12)C(=O)N[C@@H](C(=O)N[C@@H](Cc1c[nH]c2ccccc12)C(=O)N[C@@H](C(=O)N[C@@H](Cc1c[nH]c2ccccc12)C(=O)NCCO)C(C)C)C(C)C [compound 3144] (For-VGA[dV]A[dL]V[dL]W[dD](NHMe)W[dV]W[dV]W-NHCH2CH2OH) | 1.01 | 100.0 | -
CC(C)C[C@@H](NC(=O)[C@H](Cc1c[nH]c2ccccc12)NC(=O)[C@@H](CC(C)C)NC(=O)[C@H](Cc1c[nH]c2ccccc12)NC(=O)[C@@H](CC(C)C)NC(=O)[C@H](Cc1c[nH]c2ccccc12)NC(=O)[C@@H](CC(C)C)NC(=O)[C@@H](NC(=O)[C@H](NC(=O)[C@H](C)NC(=O)[C@H](NC(=O)[C@H](C)NC(=O)CNC(=O)[C@@H](NC=O)C(C)C)C(C)C)C(C)C)C(C)C)C(=O)N[C@@H](Cc1c[nH]c2ccccc12)C(=O)NCCO [compound 3308] (For-VGA[dV]A[dV]V[dL]W[dL]W[dL]W[dL]W-NHCH2CH2OH) | 1.15 | 0.1 | ++
CC(C)C[C@@H](NC(=O)[C@H](Cc1c[nH]c2ccccc12)NC(=O)[C@@H](CC(C)C)NC(=O)[C@H](Cc1c[nH]c2ccccc12)NC(=O)[C@@H](CC(C)C)NC(=O)[C@H](Cc1c[nH]c2ccccc12)NC(=O)[C@H](NC(=O)[C@@H](NC(=O)[C@H](NC(=O)[C@H](C)NC(=O)[C@H](NC(=O)[C@H](C)NC(=O)CNC(=O)[C@@H](NC=O)C(C)C)C(C)C)C(C)C)C(C)C)C(C)C)C(=O)N[C@@H](Cc1c[nH]c2ccccc12)C(=O)NCCO [compound 3311] (For-VGA[dV]A[dV]V[dV]W[dL]W[dL]W[dL]W-NHCH2CH2OH) | 1.14 | 3.3 | ++
CC(C)C[C@@H](NC(=O)[C@H](C)NC(=O)CNC(=O)[C@@H](NC=O)C(C)C)C(=O)N[C@@H](C)C(=O)N[C@@H](C(=O)N[C@H](C(=O)N[C@@H](C(=O)N[C@@H](Cc1c[nH]c2ccccc12)C(=O)N[C@@H](C(=O)N[C@@H](Cc1c[nH]c2ccccc12)C(=O)N[C@H](CC(C)C)C(=O)N[C@@H](Cc1c[nH]c2ccccc12)C(=O)N[C@@H](C(=O)N[C@@H](Cc1c[nH]c2ccccc12)C(=O)NCCO)C(C)C)C(C)C)C(C)C)C(C)C)[C@H](C)O [compound 3364] (For-VGA[dL]A[dT]V[dV]W[dV]W[dL]W[dV]W-NHCH2CH2OH) | 1.09 | 100.0 | -
CC(C)C[C@@H](NC(=O)[C@H](C)NC(=O)[C@H](NC(=O)[C@H](C)NC(=O)CNC(=O)[C@@H](NC=O)C(C)C)C(C)C)C(=O)N[C@H](C(=O)N[C@H](CC(C)C)C(=O)N[C@@H](Cc1c[nH]c2ccccc12)C(=O)N[C@H](CC(C)C)C(=O)N[C@@H](Cc1c[nH]c2ccccc12)C(=O)N[C@H](CC(C)C)C(=O)N[C@@H](Cc1c[nH]c2ccccc12)C(=O)N[C@@H](C(=O)N[C@@H](Cc1c[nH]c2ccccc12)C(=O)NCCO)[C@H](C)O)C(C)C [compound 3365] (For-VGA[dV]A[dL]V[dL]W[dL]W[dL]W[dT]W-NHCH2CH2OH) | 1.03 | 100.0 | +
CC(C)C[C@@H](NC(=O)[C@H](C)NC(=O)[C@H](NC(=O)[C@H](C)NC(=O)CNC(=O)[C@@H](NC=O)C(C)C)C(C)C)C(=O)N[C@H](C(=O)N[C@@H](C(=O)N[C@@H](Cc1c[nH]c2ccccc12)C(=O)N[C@H](CC(C)C)C(=O)N[C@@H](Cc1c[nH]c2ccccc12)C(=O)N[C@@H](C(=O)N[C@@H](Cc1c[nH]c2ccccc12)C(=O)N[C@@H](C(=O)N[C@@H](Cc1c[nH]c2ccccc12)C(=O)NCCO)C(C)C)C(C)C)[C@H](C)O)C(C)C [compound 3375] (For-VGA[dV]A[dL]V[dT]W[dL]W[dV]W[dV]W-NHCH2CH2OH) | 1.29 | 100.0 | -
CC(C)C[C@@H](NC(=O)[C@H](C)NC(=O)[C@H](NC(=O)[C@H](C)NC(=O)CNC(=O)[C@@H](NC=O)C(C)C)[C@H](C)O)C(=O)N[C@H](C(=O)N[C@H](CC(C)C)C(=O)N[C@@H](Cc1c[nH]c2ccccc12)C(=O)N[C@@H](C(=O)N[C@@H](Cc1c[nH]c2ccccc12)C(=O)N[C@H](CC(C)C)C(=O)N[C@@H](Cc1c[nH]c2ccccc12)C(=O)N[C@@H](C(=O)N[C@@H](Cc1c[nH]c2ccccc12)C(=O)NCCO)C(C)C)[C@H](C)O)C(C)C [compound 3437] (For-VGA[dT]A[dL]V[dL]W[dT]W[dL]W[dV]W-NHCH2CH2OH) | 1.01 | 100.0 | -
CC(C)C[C@@H](NC(=O)[C@H](Cc1c[nH]c2ccccc12)NC(=O)[C@H](NC(=O)[C@H](Cc1c[nH]c2ccccc12)NC(=O)[C@@H](CC(C)C)NC(=O)[C@H](Cc1c[nH]c2ccccc12)NC(=O)[C@H](NC(=O)[C@@H](NC(=O)[C@H](NC(=O)[C@H](C)NC(=O)[C@H](NC(=O)[C@H](C)NC(=O)CNC(=O)[C@@H](NC=O)C(C)C)[C@H](C)O)C(C)C)C(C)C)C(C)C)C(C)C)C(=O)N[C@@H](Cc1c[nH]c2ccccc12)C(=O)NCCO [compound 3548] (For-VGA[dT]A[dV]V[dV]W[dL]W[dV]W[dL]W-NHCH2CH2OH) | 1.16 | 100.0 | -
CNC(=O)C[C@@H](NC(=O)[C@@H](NC(=O)[C@H](NC(=O)[C@H](C)NC(=O)[C@@H](CC(C)C)NC(=O)[C@H](C)NC(=O)CNC(=O)[C@@H](NC=O)C(C)C)C(C)C)C(C)C)C(=O)N[C@@H](Cc1c[nH]c2ccccc12)C(=O)N[C@@H](C(=O)N[C@@H](Cc1c[nH]c2ccccc12)C(=O)N[C@H](CC(C)C)C(=O)N[C@@H](Cc1c[nH]c2ccccc12)C(=O)N[C@H](CC(C)C)C(=O)N[C@@H](Cc1c[nH]c2ccccc12)C(=O)NCCO)C(C)C [compound 3584] (For-VGA[dL]A[dV]V[dD](NHMe)W[dV]W[dL]W[dL]W-NHCH2CH2OH) | 1.22 | 100.0 | -
CC(C)C[C@@H](NC(=O)[C@@H](NC(=O)[C@H](NC(=O)[C@H](C)NC(=O)[C@H](NC(=O)[C@H](C)NC(=O)CNC(=O)[C@@H](NC=O)C(C)C)[C@H](C)O)C(C)C)C(C)C)C(=O)N[C@@H](Cc1c[nH]c2ccccc12)C(=O)N[C@@H](C(=O)N[C@@H](Cc1c[nH]c2ccccc12)C(=O)N[C@@H](C(=O)N[C@@H](Cc1c[nH]c2ccccc12)C(=O)N[C@@H](C(=O)N[C@@H](Cc1c[nH]c2ccccc12)C(=O)NCCO)C(C)C)C(C)C)C(C)C [compound 3631] (For-VGA[dT]A[dV]V[dL]W[dV]W[dV]W[dV]W-NHCH2CH2OH) | 1.02 | 100.0 | -
CC(C)C[C@@H](NC(=O)[C@H](C)NC(=O)CNC(=O)[C@@H](NC=O)C(C)C)C(=O)N[C@@H](C)C(=O)N[C@@H](C(=O)N[C@H](C(=O)N[C@H](CC(C)C)C(=O)N[C@@H](Cc1c[nH]c2ccccc12)C(=O)N[C@@H](C(=O)N[C@@H](Cc1c[nH]c2ccccc12)C(=O)N[C@H](CC(C)C)C(=O)N[C@@H](Cc1c[nH]c2ccccc12)C(=O)N[C@@H](C(=O)N[C@@H](Cc1c[nH]c2ccccc12)C(=O)NCCO)C(C)C)C(C)C)C(C)C)C(C)C [compound 3633] (For-VGA[dL]A[dV]V[dL]W[dV]W[dL]W[dV]W-NHCH2CH2OH) | 1.04 | 1.7 | -
CC(C)C[C@@H](NC(=O)[C@H](C)NC(=O)CNC(=O)[C@@H](NC=O)C(C)C)C(=O)N[C@@H](C)C(=O)N[C@H](CC(C)C)C(=O)N[C@H](C(=O)N[C@@H](C(=O)N[C@@H](Cc1c[nH]c2ccccc12)C(=O)N[C@H](CC(C)C)C(=O)N[C@@H](Cc1c[nH]c2ccccc12)C(=O)N[C@@H](C(=O)N[C@@H](Cc1c[nH]c2ccccc12)C(=O)N[C@H](CC(C)C)C(=O)N[C@@H](Cc1c[nH]c2ccccc12)C(=O)NCCO)[C@H](C)O)[C@H](C)O)C(C)C [compound 3780] (For-VGA[dL]A[dL]V[dT]W[dL]W[dT]W[dL]W-NHCH2CH2OH) | 1.16 | 100.0 | -
